Source: patent US12486234B2, “PAPD5 inhibitors and methods of use thereof” (Children's Medical Center Corporation, priority 2019, dated 2025)

What was measured:
PAPD5 [1] = molecular target: T1, PAPD5 (Homo sapiens, UniProt Q8NDF8); experiment: RNA oligo-adenylation (oligo-extension) inhibition assay with recombinant PAPD5; format: biochemical; design: key: minimal activity (0); range from minimal activity (0) to that of compound 1 (+++); range from minimal activity (0) to that of compound 1 (+++); that of compound 1 (+++); settings: qualitative measure of RNA oligo-extension inhibition, relative to compound 1
T1 construct: made in house
T1 sequence (Q8NDF8 68-698 isoform Q8NDF8-5 limits assumed): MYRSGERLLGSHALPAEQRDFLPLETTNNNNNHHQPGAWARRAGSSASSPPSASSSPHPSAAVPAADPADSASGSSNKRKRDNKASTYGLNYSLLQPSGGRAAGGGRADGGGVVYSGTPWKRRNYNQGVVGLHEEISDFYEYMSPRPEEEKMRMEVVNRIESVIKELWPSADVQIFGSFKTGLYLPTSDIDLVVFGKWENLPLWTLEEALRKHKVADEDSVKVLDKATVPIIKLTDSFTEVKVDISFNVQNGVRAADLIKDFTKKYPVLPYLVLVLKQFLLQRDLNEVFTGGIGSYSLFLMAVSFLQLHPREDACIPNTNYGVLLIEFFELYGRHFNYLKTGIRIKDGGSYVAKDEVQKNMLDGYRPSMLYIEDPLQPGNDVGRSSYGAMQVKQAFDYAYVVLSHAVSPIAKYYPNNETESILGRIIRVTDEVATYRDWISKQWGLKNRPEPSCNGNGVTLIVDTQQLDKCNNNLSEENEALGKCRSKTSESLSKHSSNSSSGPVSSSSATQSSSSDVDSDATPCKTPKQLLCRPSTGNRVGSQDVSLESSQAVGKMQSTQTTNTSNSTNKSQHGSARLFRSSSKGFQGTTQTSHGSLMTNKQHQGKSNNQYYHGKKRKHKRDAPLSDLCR
Protocol: An in vitro RNA polyadenylation assay using recombinant PAPD5, ATP and an oligonucleotide substrate utilized the following phenomenon: ATP utilization by PAPD5 reads out as a decreased luminescence signal produced by luciferase (KinaseGlo, Promega, Madison, WI).
(§1) Qualitative measure of RNA oligo-extension inhibition for the tested compounds, expressed as range from minimal activity (0) to that of compound 1 (+++), and results of a DSF binding assay (shown as shift in temperature at 100 μM of the compound) are shown in the Table 2 below.

PAPD5 [2] = molecular target: T1, PAPD5; experiment: DSF binding assay (shift in temperature); settings: shift in temperature at 100 μM of the compound
Protocol: as §1

Row | Compound | Inhibition of PAPD5 RNA oligo adenylation (PAPD5 [1]) | ΔTm at 100 µM (PAPD5 [2]) | ΔTm 100 μM (PAPD5 [2])
1 | CCOC(=O)c1cnc2ccc(OC(F)(F)F)cc2c1Nc1ncccc1C(=O)O [Compound 1A, 2-[[3-ethoxycarbonyl-6-(trifluoromethoxy)-4-quinolyl]amino]pyridine-3-carboxylic acid] | 0 | 0.4 °C | –
2 | CCOC(=O)c1cnc2ccc(OC(F)(F)F)cc2c1Nc1scnc1C(=O)O [Compound 5A, 5-((3-(ethoxycarbonyl)-6-(trifluoromethoxy)quinolin-4-yl)amino)thiazole-4-carboxylic acid] | 0 | 2.3 °C | –
3 | CCOC(=O)c1cnc2ccc(OC(F)(F)F)cc2c1Nc1ccccc1-c1nn[nH]n1 [Compound 10A, ethyl 4-[2-(2H-tetrazol-5-yl)anilino]-6-(trifluoromethoxy)quinoline-3-carboxylate] | + | 1 °C | –
4 | CN(C)C(=O)c1cnc2ccc(OC(F)(F)F)cc2c1Nc1ccccc1C(=O)O [Compound 12A, 2-[[3-(dimethylcarbamoyl)-6-(trifluoromethoxy)-4-quinolyl]amino]benzoic acid] | + | 6.1 °C | –
5 | O=C(O)c1ccccc1Nc1c(C(=O)N2CCOCC2)cnc2ccc(OC(F)(F)F)cc12 [Compound 13A, 2-[[3-(morpholine-4-carbonyl)-6-(trifluoromethoxy)-4-quinolyl]amino]benzoic acid] | + | 5.6 °C | –
6 | O=C(O)c1ccccc1Nc1c(C(=O)N2CCNCC2)cnc2ccc(OC(F)(F)F)cc12 [Compound 14A, 2-[[3-(piperazine-1-carbonyl)-6-(trifluoromethoxy)-4-quinolyl]amino]benzoic acid] | ++ | 1.7 °C | –
7 | N#Cc1cnc2ccc(OC(F)(F)F)cc2c1Nc1ccccc1C(=O)O [Compound 15A, 2-[[3-cyano-6-(trifluoromethoxy)-4-quinolyl]amino]benzoic acid] | – | 8.8 °C | –
8 | NS(=O)(=O)c1cnc2ccc(OC(F)(F)F)cc2c1Nc1ccccc1C(=O)O [Compound 16A, 2-[[3-sulfamoyl-6-(trifluoromethoxy)-4-quinolyl]amino]benzoic acid] | +++ | 9.6 °C | –
9 | O=C(O)c1ccccc1Nc1c(-c2ncco2)cnc2ccc(OC(F)(F)F)cc12 [Compound 17A, 2-[[3-oxazol-2-yl-6-(trifluoromethoxy)-4-quinolyl]amino]benzoic acid] | +++ | 8.4 °C | –
10 | CCOC(=O)c1cnc2ccc(C(=O)N3CCNCC3)cc2c1Nc1ccccc1C(=O)O [Compound 18A, 2-[[3-ethoxycarbonyl-6-(piperazine-1-carbonyl)-4-quinolyl]amino]benzoic acid] | 0 | -0.1 °C | –
11 | CCOC(=O)c1cnc2ccc(OC3CCNCC3)cc2c1Nc1ccccc1C(=O)O [Compound 19A, 2-[[3-ethoxycarbonyl-6-(4-piperidyloxy)-4-quinolyl]amino]benzoic acid] | 0 | 0.6 °C | –
12 | CCOC(=O)c1cnc2ccc(-c3cccc4[nH]ccc34)cc2c1Nc1ccccc1C(=O)O [Compound 23A, 2-[[3-ethoxycarbonyl-6-(1H-indol-4-yl)-4-quinolyl]amino]benzoic acid] | +++ | 4.6 °C | –
13 | CCOC(=O)c1cnc2ccc(OC(F)(F)F)cc2c1Nc1ccccc1C#N [Compound 25A, ethyl 4-(2-cyanoanilino)-6-(trifluoromethoxy)quinoline-3-carboxylate] | 0 | 0.1 °C | –
14 | CCOC(=O)c1cnc2ccc(Br)cc2c1Nc1ccccc1C(=O)O [Compound 26A, 2-[(6-bromo-3-ethoxycarbonyl-4-quinolyl)amino]benzoic acid] | +++ | 11.1 °C | –
15 | O=C(O)c1cccn2c(=O)c3cnc4ccc(OC(F)(F)F)cc4c3nc12 [Compound 27A, 14-oxo-7-(trifluoromethoxy)-17,18,19-triazatetracyclooctadeca-(4),1(8),2(7),3(9),5(10),6(17),11,13(18)-octaene-8-carboxylic acid] | 0 | 2.8 °C | –
16 | O=C(O)c1cccnc1Nc1c(C(=O)O)cnc2ccc(OC(F)(F)F)cc12 [Compound 28A, 4-[(3-carboxy-2-pyridyl)amino]-6-(trifluoromethoxy)quinoline-3-carboxylic acid] | + | 5.5 °C | –
17 | CCOC(=O)c1cnc2ccc(-n3ccc4cc(O)ccc43)cc2c1Nc1ccccc1C(=O)O [Compound 29A, 2-[[3-ethoxycarbonyl-6-(5-hydroxyindol-1-yl)-4-quinolyl]amino]benzoic acid] | +++ | 4.9 °C | –

Row | Compound | Inhibition of PAPD5 RNA oligo adenylation (PAPD5 [1]) | ΔTm at 100 µM (PAPD5 [2]) | ΔTm 100 μM (PAPD5 [2])
18 | O=c1c2cnc3ccc(OC(F)(F)F)cc3c2[nH]c2ccnn12 [Compound 30A, 6-(trifluoromethoxy)-14,15,16,17-tetrazatetracycloheptadeca-(6),1(7),2(8),3(15),4(9),5(16),10-heptaen-12-one] | 0 | 1.7 °C | –
19 | CCOC(=O)c1ncn2c1[nH]c(=O)c1cnc3ccc(OC(F)(F)F)cc3c12 [Compound 31A, ethyl 14-oxo-7-(trifluoromethoxy)-17,18,19,20-tetrazatetracycloheptadeca-1(7),2(8),3(9),4(18),5(19),10,12-heptaene-12-carboxylate] | 0 | 1.8 °C | –
20 | CCOC(=O)c1cnc2ccc(OC(F)(F)F)cc2c1Nc1ccccc1C(=O)O [Compound 32A, 2-[[3-ethoxycarbonyl-6-(trifluoromethoxy)-4-quinolyl]amino]benzoic acid] | +++ | 7.9 °C | –
21 | CCOC(=O)c1cnc2ccc(OC(F)(F)F)cc2c1Nc1scnc1C(=O)OCC [Compound 33A, ethyl 5-[[3-ethoxycarbonyl-6-(trifluoromethoxy)-4-quinolyl]amino]thiazole-4-carboxylate] | 0 | 0.7 °C | –
22 | CCOC(=O)c1cnc2ccc(OC(F)(F)F)cc2c1Nc1ccccc1S(=O)(=O)NCC(F)(F)F [Compound 34A, ethyl 4-[2-(2,2,2-trifluoroethylsulfamoyl)anilino]-6-(trifluoromethoxy)quinoline-3-carboxylate] | 0 | 0.3 °C | –
23 | COCCCOc1cc2ncc(C#N)c(Nc3ccccc3C(=O)O)c2cc1OC [Compound 51A, 2-[[3-cyano-6-methoxy-7-(3-methoxypropoxy)-4-quinolyl]amino]benzoic acid] | + | 7.9 °C | –
24 | COCCCOc1cc2ncc(C(=O)N3CCOCC3)c(Nc3ccccc3C(=O)O)c2cc1OC [Compound 53A, 2-[[6-methoxy-7-(3-methoxypropoxy)-3-(morpholine-4-carbonyl)-4-quinolyl]amino]benzoic acid] | + | 5.2 °C | –
25 | N#Cc1cnc2ccc(-c3cccc4ncccc34)cc2c1Nc1ccccc1C(=O)O [Compound 54A, 2-[[3-cyano-6-(5-quinolyl)-4-quinolyl]amino]benzoic acid] | +++ | – | fluorescent
26 | COCCCOc1cc2ncc(C#N)c(Nc3cccc(O)c3C(=O)O)c2cc1OC [Compound 55A, 2-[[3-cyano-6-methoxy-7-(3-methoxypropoxy)-4-quinolyl]amino]-6-hydroxy-benzoic acid] | +++ | 13.9 °C | –
27 | COCCCOc1cc2ncc(C#N)c(-n3ccc(=O)c(C(=O)O)c3)c2cc1OC [Compound 56A, 1-[3-cyano-6-methoxy-7-(3-methoxypropoxy)-4-quinolyl]-4-oxo-pyridine-3-carboxylic acid] | 0 | 0.4 °C | –
28 | NS(=O)(=O)c1cnc2ccc(-c3cccc4ncoc34)cc2c1Nc1ccccc1C(=O)O [Compound 64A, 2-[[6-(1,3-benzoxazol-7-yl)-3-sulfamoyl-4-quinolyl]amino]benzoic acid] | – | 6.3 °C | –
29 | O=C(O)c1c(Nc2c(S(=O)(=O)N3CCOCC3)cnc3ccc(Br)cc23)ccc(Br)c1O [Compound 78A-BR, 3-bromo-6-[(6-bromo-3-morpholinosulfonyl-4-quinolyl)amino]-2-hydroxy-benzoic acid] | – | – | fluorescent
30 | COc1cccc(Nc2c(S(=O)(=O)N3CCOCC3)cnc3ccc(Cl)cc23)c1C(=O)O [Compound 79A-INT, 2-[(6-chloro-3-morpholinosulfonyl-4-quinolyl)amino]-6-methoxy-benzoic acid] | – | 0 °C | –
31 | CC(=O)Nc1cccc(Nc2c(S(=O)(=O)N3CCOCC3)cnc3ccc(Br)cc23)c1C(=O)O [Compound 85A, 2-acetamido-6-[(6-bromo-3-morpholinosulfonyl-4-quinolyl)amino]benzoic acid] | – | 0 °C | –
32 | Nc1cccc(Nc2c(S(=O)(=O)N3CCOCC3)cnc3ccc(Br)cc23)c1C(=O)O [Compound 85A-BP, 2-amino-6-[(6-bromo-3-morpholinosulfonyl-4-quinolyl)amino]benzoic acid] | – | 6.8 °C | –
33 | COc1cccc(Nc2c(S(=O)(=O)N3CCN(C(=O)OCc4ccccc4)CC3)cnc3ccc(Br)cc23)c1C(=O)O [Compound 93A-INT, 2-[[3-(4-benzyloxycarbonylpiperazin-1-yl)sulfonyl-6-bromo-4-quinolyl]amino]-6-methoxy-benzoic acid] | – | 0 °C | –
